US20250235455A1, “AQUEOUS TICAGRELOR SOLUTIONS, METHOD OF MANUFACTURING AND USES” (HYLORIS DEVELOPMENTS SA, priority 2022, published 2025)

What was measured:
Format in all cases: physicochemical
[1] = Storage stability of ticagrelor 6 mg/ml in HPβCD 40% w/w, phosphate buffer pH 7.5, at 40° C. and 75% RH
From the text: A Gradient HPLC method was used to analyze impurities in formulations using a YMC-Pack Pro C18 column (100×4.6 mm, S-3 μm 12 nm). Good separation was obtained for all the impurities. • Amine impurity: (1S,2S,3R,5S)-3-(7-amino-5-(propylsulfanyl)-3H-[1,2,3]triazolo[4,5-d]pyrimidin-3-yl)-5-(2-hydroxyethoxy)cyclopentane-1,2-diol. This is a process related degradant impurity. • Regiomer impurity: (1S, 2S, 3R, 5S)-3-((3-((1R,2S)-2-(3,4-Difluorophenyl)cyclopropyl)-5-(propylsulfanyl)-3H-[1,2,3]triazolo[4,5-d]pyrimidin-7-yl)amino)-5-(2-hydroxyethoxy)cyclopentane-1,2-diol. This is a process related degradant impurity. • Acetal impurity: 2-[[(3aR,4S,6S,6aS)-6-[7-[1R,2S)-2-(3,4-difluorophenyl)-cyclopropyl]amino]-5-(propylsulfanyl)-3H-[1,2,3]triazolo-[4,5-d]pyrimidin-3-yl]-2,2-dimethyltetrahydro-2H-3aHcyclopenta[d][1,3]dioxol-4-yl]oxy]ethan-1-ol.
First HPβCD was dissolved in a phosphate buffer solution of pH 7.5 prepared separately in water. […] The solution was filtered through a 0.22 micrometer filter and filled in USP Type I amber colored glass vials. The vials were stoppered and stored. All precautions were taken during manufacturing, such as N2 purging and avoiding direct exposure to light.

[2] = Clear aqueous ticagrelor-cyclodextrin solutions considering 65 mg dose; settings: using 20-40% w/w HPβCD
[3] = Bulk hold study, ticagrelor 8 mg/ml in 30% w/w HPβCD, phosphate buffer pH 7.5
Description: To investigate the impact of temperature and hold time, a new composition was prepared as per below Table 19.
In first step a phosphate buffer at pH 7.5 was prepared and the buffered solution was heated to 40° C.-45° C. HPβCD was added to the buffered solution under continuous mixing. […] It usually took 30 mins to 4 hours depending on batch size.
Then this solution was filtered through a 0.22-micron filter and packed in suitable clear or amber colored glass vials

[4] = Flocculation test
[5] = Solubility of ticagrelor in aqueous vitamin E TPGS solutions
Description: Aqueous ticagrelor solutions were prepared using vitamin E TPGS as solubilizer for ticagrelor. Water soluble vitamin E TPGS was added to water to obtain different concentrations of 2.5 and 5.0 and 10.0 w/v % aqueous vitamin E TPGS solutions. To these solutions, kept at a temperate of 45° C.+/−5° C., portions of ticagrelor were gradually added.
In the experiment summarized in Table 29, 3 mg ticagrelor portions were added step-by-step to a 50 ml aqueous vitamin E TPGS solution (1st stage).
20 ml of each diluent were then used in a 2nd stage study. To 20 ml of each diluent 10 mg ticagrelor portions were added. This was reduced to 5 mg when the dissolution was taking longer.

[6] = Diluent tests of 5 mg/ml ticagrelor-cyclodextrin solutions; settings: for Appearance, undiluted: 5 mg/ml; for Appearance in 5% dextrose / Appearance in NaCl 0.9%: diluted to 0.1 mg/ml
Description: 5 mg/ml ticagrelor-cyclodextrin solutions with varying amounts of HPβCD were diluted with normal saline, 5% dextrose solution or Ringer's lactate solution. The stability was screened.

[7] = pH 7.5, T = 4 weeks, 40° C./75% RH
[8] = pH 7.5, T = 8 weeks, 40° C./75% RH
[9] = pH 7.5, T = 12 weeks, 40° C./75% RH
[10] = pH 7.5, T = 24 Weeks, 40° C./75% RH

## CCCSc1nc(N[C@@H]2C[C@H]2c2ccc(F)c(F)c2)c2nnn([C@@H]3C[C@H](OCCO)[C@@H](O)[C@H]3O)c2n1 [Ticagrelor, (1S,2S,3R,5S)-3-{7-[(1R,2S)-2-(3,4-difluorophenyl)cyclopropylamino]5-(propylthio)-3H-(1,2,3)triazolo (4,5-D)pyrimidin-3-yl}-5-(2 hydroxyethoxy)cyclopentane-1,2-diol]
[1]; 40° C. and 75% Relative Humidity
  Storage stability: good storage stability
[1]; pH 7.5, T = 0
  Acetal impurity: 0.05%
  Amine impurity: 0.04%
  Assay Ticagrelor: 104.27%
  Regiomer impurity: 0.00%
  Sum Impurities >0.05: 0.11%
  Total Impurities: 0.31%
  Triol impurity: 0.04%
[1]; [7]
  Acetal impurity: 0.05%
  Amine impurity: 0.05%
  Assay Ticagrelor: 104.47%
  Regiomer impurity: 0.01%
  Sum Impurities >0.05: 0.14%
  Total Impurities: 0.32%
  Triol impurity: 0.05%
[1]; [8]
  Acetal impurity: 0.05%
  Amine impurity: 0.05%
  Assay Ticagrelor: 102.59%
  Regiomer impurity: 0.04%
  Sum Impurities >0.05: 0.15%
  Total Impurities: 0.29%
  Triol impurity: 0.05%
[1]; [9]
  Acetal impurity: 0.05%
  Amine impurity: 0.05%
  Assay Ticagrelor: 102.31%
  Regiomer impurity: 0.08%
  Sum Impurities >0.05: 0.23%
  Total Impurities: 0.41%
  Triol impurity: 0.04%
[1]; [10]
  Acetal impurity: 0.05%
  Amine impurity: 0.07%
  Assay Ticagrelor: 104.39%
  Regiomer impurity: 0.16%
  Sum Impurities >0.05: 0.33%
  Total Impurities: 0.35%
  Triol impurity: 0.05%
[2]
  Ticagrelor solution concentration achieved: 5 to 13 mg/mL
[3]; Bulk hold 45° C., T = 1 h
  Acetal impurity: 0.04%
  Amine impurity: 0.05%
  Assay Ticagrelor: 107.87%
  Sum Impurities >0.05: 0.12%
  Total Impurities: 0.20%
  Triol impurity: 0.04%
  Unnamed impurity, relative retention time 1.33: 0.07%
[3]; Bulk hold 45° C., T = 110 h
  Acetal impurity: 0.04%
  Amine impurity: 0.07%
  Assay Ticagrelor: 109.10%
  Sum Impurities >0.05: 0.11%
  Total Impurities: 0.28%
  Triol impurity: 0.05%
  Unnamed impurity, relative retention time 1.33: 0.03%
[3]; Bulk hold at 30° C., T0
  Acetal impurity: 0.04%
  Amine impurity: 0.06%
  Assay Ticagrelor: 105.60%
  Regiomer impurity: 0.00%
  Sum Impurities >0.05: 0.10%
  Total Impurities: 0.21%
  Triol impurity: 0.05%
[3]; Bulk hold at 30° C., T4 W
  Acetal impurity: 0.04%
  Amine impurity: 0.06%
  Assay Ticagrelor: 106.14%
  Regiomer impurity: 0.00%
  Sum Impurities >0.05: 0.06%
  Total Impurities: 0.21%
  Triol impurity: 0.04%
[3]; sealed vials, T = 1 M, 25° C.
  Acetal impurity: 0.03%
  Amine impurity: 0.06%
  Assay Ticagrelor: 107.22%
  Regiomer impurity: 0.03%
  Sum Impurities >0.05: 0.06%
  Total Impurities: 0.23%
  Triol impurity: 0.01%
  Unnamed impurity, relative retention time 1.03: 0.02%
  Unnamed impurity, relative retention time 1.33: 0.03%
[3]; sealed vials, T = 1 M, 40° C.
  Acetal impurity: 0.00%
  Amine impurity: 0.06%
  Assay Ticagrelor: 105.16%
  Regiomer impurity: 0.08%
  Sum Impurities >0.05: 0.21%
  Total Impurities: 0.28%
  Triol impurity: 0.00%
  Unnamed impurity, relative retention time 1.03: 0.02%
  Unnamed impurity, relative retention time 1.33: 0.08%
[4]; HPβCD 25% w/w, ticagrelor 5 mg/ml
  Flocculation test: did not pass
[4]; HPβCD 30% w/w, ticagrelor 5 mg/ml
  Flocculation test: passed
[4]; HPβCD 35% w/w, ticagrelor 5 mg/ml
  Flocculation test: passed
[4]; HPβCD 35% w/w, ticagrelor 10 mg/ml
  Flocculation test: did not pass
[4]; HPβCD 40% w/w, ticagrelor 5 mg/ml
  Flocculation test: passed
[4]; HPβCD 40% w/w, ticagrelor 10 mg/ml
  Flocculation test: passed
[4]; SBECD 40% w/w, ticagrelor 5 mg/ml
  Flocculation test: passed
[5]
  Time for 10 mg ticagrelor to dissolve: 5 to 10 min
[6]; HPβCD 22.5% w/w
  Appearance, undiluted: Turbid; clear after heating to 40 °C
  Appearance in 5% dextrose: Clear solution
  Appearance in NaCl 0.9%: Turbid
[6]; HPβCD 25.0% w/w
  Appearance, undiluted: Turbid; clear after heating to 40 °C
  Appearance in 5% dextrose: Clear solution
  Appearance in NaCl 0.9%: Turbid
[6]; HPβCD 27.5% w/w
  Appearance, undiluted: Turbid; clear after heating to 40 °C
  Appearance in 5% dextrose: Clear solution
  Appearance in NaCl 0.9%: Turbid
[6]; HPβCD 30.0% w/w
  Appearance, undiluted: Clear solution
  Appearance in 5% dextrose: Clear solution
  Appearance in NaCl 0.9%: Turbid
[6]; HPβCD 32.5% w/w
  Appearance, undiluted: Clear solution
  Appearance in 5% dextrose: Clear solution
  Appearance in NaCl 0.9%: Clear solution
[6]; Normal saline and Ringer's lactate solution as diluent
  Appearance with diluent: turbid solutions
